Tests used:
[1] = system: parakeratosis caused by oleic acid; experiment: Test on parakeratosis inhibitory action (oleic acid applied on the back of a hairless mouse); assay type: in vivo; details: for Incidence of Parakeratosis (Average of 4 mice): 100 μL, 3 days, grades of 1 to 4; for Effect on parakeratosis caused by oleic acid (in words): summary of Tables 2 and 3, hairless mouse
Procedure: An aqueous solution containing 3% each of GABA, glycine, D-glutamic acid and L-glutamic acid was prepared, and pH of each solution was adjusted to nutrality, if necessary. An aqueous solution containing 10 mM each of GABA, bicuculline methobromide (antagonist to GABA receptor type A), MK-801, muscimol, isogubacin, ATP, suramin, PPADS and TNP-ATP was also prepared.
Thereafter, 100 μL of sample solution or reference solution was applied. This procedure was repeated for 3 days, and the keratin layer on the back was peeled with a tape. The nucleus of the keratin layer was stained with hematoxylin, the number of nuclear cells was counted under a microscope, and the results were evaluated in four grades of 1 to 4.

[2] = system: pores; experiment: Test on pore-shrinking action (replicas of cheek pores); details: for Decision of Replica of Pores (Average of n = 5): 3% sample solution on cheek twice a day for 1 month, difference of scores (13 grades of 1 to 13) before and after the test; for Pore-shrinking effect (in words): summary of Table 4, 3% solutions
[3] = system: Epidermal keratinocyte; experiment: Excitatory action test of cells with oleic acid (intracellular calcium, fura-2-AM); assay type: cell-based; details: summary of Table 1
Procedure: Epidermal keratinocyte was cultivated on an appropriate medium, for example, KGM medium, according to the conventional method. The cultured cells were seeded on a cover glass chamber and cultivated there a day before measuring calcium ions. An appropriate buffer solution, for example BSS (balanced salt solution) and a calcium sensitive fluorescent pigment (fura-2-AM) were added in the cultured cell at a concentration of about 2 μM on the next day, and the fluorescent pigment was allowed to be incorporated into the cell by incubating under an appropriate condition (for example 30 minutes at 37° C.). After completing intake of the pigment, the same buffer solution (fresh BSS) was added. […] The same measurement was carried out by adding only the same buffer solution (BSS). The fluorescence intensity at 340 nm was divided by the fluorescence intensity at 380 nm for determining the calcium concentration according to the conventional method.

[4] = Application Test of 3% Oleic Acid Solution, sample 10 mM, water reference 2.0
[5] = Application Test of 30% Oleic Acid Solution, sample 3% solution, water reference 2.5

Compound | Incidence of Parakeratosis (Average of 4 mice) [1, 4] | Effect on parakeratosis caused by oleic acid (in words) [1] | Decision of Replica of Pores (Average of n = 5) [2] | Pore-shrinking effect (in words) [2] | Incidence of Parakeratosis (Average of 4 mice) [1, 5] | Excitatory function of the cell (in words) [3]
Nc1ncnc2c1ncn2[C@@H]1O[C@H](COP(=O)(O)OP(=O)(O)OP(=O)(O)O)[C@@H](O)[C@H]1O [ATP] | 2.3 | worsens parakeratos is |  |  |  | 
N[C@H](CCC(=O)O)C(=O)O [D-Glutamic Acid, D-glutamic acid] |  | improved parakeratosis | −0.4 | excellent pore-shrinking effects | 2.0 | 
NCCCC(=O)O [GABA, γ-aminobutyric acid] | 1.5 | improved parakeratosis | −1.0 | excellent pore-shrinking effects | 1.5 | 
NCC(=O)O [Glycine, glycine] |  | improved parakeratosis | −1.2 | excellent pore-shrinking effects | 1.3 | 
O=C(O)C1=CCNCC1 [Isogubacin, isogubacin] | 1.3 | improved parakeratosis |  |  |  | 
N[C@@H](CCC(=O)O)C(=O)O [L-Glutamic Acid, L-glutamic acid] |  | worsens parakeratosis |  |  | 3.0 | 
C[C@]12N[C@H](Cc3ccccc31)c1ccccc12 [MK-801, dizocylpin] | 1.0 | improved parakeratosis |  |  |  | 
NCc1cc(=O)[nH]o1 [Muscimol, muscimol] | 1.3 | improved parakeratosis |  |  |  | 
CCCCCCCC/C=C\CCCCCCCC(=O)O [Oleic Acid, oleic acid] |  |  |  |  |  | has an excitatory function
Cc1nc(N=Nc2ccc(S(=O)(=O)O)cc2S(=O)(=O)O)c(COP(=O)(O)O)c(C=O)c1O [PPADS, pyridoxal phosphate-6-azophenyl-2′,4′-disulfonic acid] | 1.8 | improved parakeratosis |  |  |  | 
Cc1ccc(C(=O)Nc2ccc(S(=O)(=O)O)c3cc(S(=O)(=O)O)cc(S(=O)(=O)O)c23)cc1NC(=O)c1cccc(NC(=O)Nc2cccc(C(=O)Nc3cc(C(=O)Nc4ccc(S(=O)(=O)O)c5cc(S(=O)(=O)O)cc(S(=O)(=O)O)c45)ccc3C)c2)c1 [Suramin, suramin] | 1.5 | improved parakeratosis |  |  |  | 
C[N+]1(C)CCc2cc3c(cc2[C@H]1[C@@H]1OC(=O)c2c1ccc1c2OCO1)OCO3.[Br-] [bicuculline methobromide] |  | inhibited parakeratosis inhibitory action |  |  |  | 
trinitrophenyl-ATP [TNP-ATP] | 1.5 | improved parakeratosis |  |  |  | 

From patent US20080269304A1, “Parakeratosis inhibitor, pore-shrinking agent and skin preparation for external use” (priority 2002, published 2008)
